Measurements: US8648111B2, “N1-2-thiophene-2-ylethyl-N2-substituted biguanide derivate, preparation method thereof, and pharmaceutical composition containing the same as active ingredients” (Hanall Biopharma Co., Ltd., priority 2008, dated 2014)
Like-named read-outs stand apart in the source and are kept apart here.

Key:
Type in all cases: cell-based
HepG2 cells [1] = assay: Measurement of cholesterol synthesis inhibitory ability (cholesterol content in cell lysates, Amplex red)
Method: (§1) 2 mM metformin was used as a comparative compound for each of the plates (control group).
A cholesterol synthesis inhibitory ability, which is an important function of AMPK (AMP-activated protein kinase), was measured using HepG2 cells (ATCC: American Type Culture Collection) as a hepatic cell model according to the following procedure.
The hepatic cell model HepG2 cells were cultured in 1% serum-containing media (DMEM (Gibco), FBS (Gibco)) for 24 hours, and then treated with 100 μM or 500 μM of each of the compounds prepared in Examples for 24 hours. Then, the cells were disrupted with a lysis solution (0.1 M potassium phosphate, pH 7.4, 0.05 M NaCl, 5 mM cholic acid, 0.1% Triton X-100 (Sigma)). To the disrupted cells was added the same volume of a reaction solution (2 U/mL of a cholesterol oxidizing agent, 2 U/mL of a peroxidase, 0.2 U/mL of a cholesterol esterase, and 300 μM of Amplex red as a fluorescent factor (Molecular Probe)), which was allowed to react at 37° C. for 30 minutes. After completion of the reaction, the content of cholesterol formed in the cell lysates was measured at a wavelength of 560/590 nm (ex/em) using a fluorescence microscope.
A lower measurement value means an increased cholesterol synthesis inhibitory ability.

HepG2 cells [2] = assay: Measurement of triglyceride (triglyceride content in cell lysates, Amplex red)
Method: as §1
HepG2 cells (ATCC: American Type Culture Collection) were cultured in 1% serum-containing media (DMEM (Gibco), FBS (Gibco)) for 24 hours, and then treated with 100 μM or 500 μM of each of the compounds prepared in Examples for 24 hours. Then, the cells were disrupted with a lysis solution (0.1 M potassium phosphate, pH 7.4, 0.05 M NaCl, 5 mM cholic acid, 0.1% Triton X-100). […] After completion of the reaction, the content of triglyceride formed in the cell lysates was measured at a wavelength of 560/590 nm (ex/em) using a fluorescence microscope.
A lower measurement value means an increased triglyceride synthesis inhibitory ability.

HepG2 cells [3] = assay: Measurement of gluconeogenesis inhibitory ability (14C-lactate, glucose formed in cells)
Method: as §1
HepG2 cells (ATCC: American Type Culture Collection) were cultured in 10% serum-containing high glucose media, transferred to no serum-containing low glucose media (DMEM (Gibco), FBS (Gibco)), and then treated with 100 μM of each of the compounds for 24 hours. Then, the cells were treated with 0.5 μCi ^14C-lactate (Amersham Pharmacia) and 10 mM L-lactate (Sigma), and cultured for 4 hours. After cultivation, the media were removed therefrom, and the cells were washed with PBS, treated with 0.1N NaOH and kept at room temperature for 1 hour. Then, the cells were neutralized with 1N HCl, and the content of glucose formed in the cells was measured with a liquid scintillation counter.
A lower measurement value means an increased gluconeogenesis inhibitory ability.

C2C12 cells = assay: Measurement of glucose absorption ability (3H-deoxy-glucose uptake with insulin); conditions: 100 uM compound with 1 μM insulin, 24 hours, differentiated C2C12, higher value = stronger, more than 200% counts as glucose absorption ability
Method: as §1
C2C12 cells (ATCC: American Type Culture Collection), a muscle cell model, were induced to differentiate into muscle cells in 2% bovine fetal serum-containing media (DMEM (Gibco), FBS (Gibco)) for 6 days. The C2C12 cells which differentiated into muscle cells were transferred to serum-free low glucose media (DMEM (Gibco), FBS (Gibco)), treated with 100 μM of each of the compounds, and then cultured with 1 μM of insulin for 24 hours. After cultivation, the cells were treated with 1 μCi ^3H-deoxy-glucose (Amersham Pharmacia) and 10 μM deoxy-glucose (Sigma) at 37° C. for 15 minutes. The media were removed therefrom, and the cells were washed twice with PBS (phosphate buffered saline). The washed cells were treated with 0.1N NaOH and neutralized with 1N HCl. The content of glucose absorbed into the cells was measured with a liquid scintillation counter.
A higher measurement value means a stronger ability to reduce insulin resistance.

[4] = 100 uM compound, 24 hours, HepG2, lower value = stronger cholesterol synthesis inhibition
[5] = 500 uM compound, 24 hours, HepG2, lower value = stronger cholesterol synthesis inhibition
[6] = 100 uM compound, 24 hours, HepG2, lower value = stronger triglyceride synthesis inhibition
[7] = 500 uM compound, 24 hours, HepG2, lower value = stronger triglyceride synthesis inhibition
[8] = 100 uM compound, 24 hours, HepG2, lower value = stronger gluconeogenesis inhibition
[9] = 100 uM compound, 24 hours, HepG2, lower value = stronger gluconeogenesis inhibition, 100 µM
[10] = 100 uM compound, 24 hours, HepG2, lower value = stronger cholesterol synthesis inhibition, hydrochloride
[11] = 100 uM compound, 24 hours, HepG2, lower value = stronger triglyceride synthesis inhibition, hydrochloride
[12] = 100 uM compound, 24 hours, HepG2, lower value = stronger gluconeogenesis inhibition, hydrochloride, 100 µM
[13] = 500 uM compound, 24 hours, HepG2, lower value = stronger cholesterol synthesis inhibition, hydrochloride
[14] = 500 uM compound, 24 hours, HepG2, lower value = stronger triglyceride synthesis inhibition, hydrochloride

## Cl.N=C(N)NC(=Nc1cccc2ccccc12)NCCc1cccs1 [Example 3, N1-2-(thiophen-2-ylethyl)-N2-1-naphthyl biguanide hydrochloride]
HepG2 cells [1]; [4]
  Cholesterol (100 uM) Aver.: 30.90
HepG2 cells [1]; [5]
  Cholesterol (500 uM) Aver.: 31.14
HepG2 cells [2]; [6]
  Triglyceride (100 uM) Aver.: 5.28
HepG2 cells [2]; [7]
  Triglyceride (500 uM) Aver.: −6.37
HepG2 cells [3]; [8]
  Gluconeogenesis inhibition (100 uM) Aver.: 3.73
C2C12 cells
  Glucose absorption (100 uM) Aver.: 15.10%

## CCCCN=C(NCCc1cccs1)NC(=N)N.Cl [Example 26, N1-2-(thiophen-2-ylethyl)-N2-butyl biguanide hydrochloride (isomer)]
HepG2 cells [1]; [4]
  Cholesterol (100 uM) Aver.: 43.20
HepG2 cells [1]; [5]
  Cholesterol (500 uM) Aver.: 13.28
HepG2 cells [2]; [6]
  Triglyceride (100 uM) Aver.: 47.59
HepG2 cells [2]; [7]
  Triglyceride (500 uM) Aver.: 30.67
HepG2 cells [3]; [9]
  Gluconeogenesis inhibition (100 uM) Aver.: 81.70
C2C12 cells
  Glucose absorption (100 uM) Aver.: 18.34%

## CCCN=C(NCCc1cccs1)NC(=N)N.Cl [Example 13, N1-2-(thiophen-2-ylethyl)-N2-propyl biguanide hydrochloride]
HepG2 cells [1]; [4]
  Cholesterol (100 uM) Aver.: 77.1
HepG2 cells [1]; [5]
  Cholesterol (500 uM) Aver.: 61.7
HepG2 cells [2]; [6]
  Triglyceride (100 uM) Aver.: 59.3
HepG2 cells [2]; [7]
  Triglyceride (500 uM) Aver.: 48.9
HepG2 cells [3]; [8]
  Gluconeogenesis inhibition (100 uM) Aver.: 73.51
C2C12 cells
  Glucose absorption (100 uM) Aver.: 110.2%

## CN=C(NCCc1cccs1)NC(=N)N.Cl [Example 10, N1-2-(thiophen-2-ylethyl)-N2-methyl biguanide hydrochloride (isomer)]
HepG2 cells [1]; [4]
  Cholesterol (100 uM) Aver.: 52.29
HepG2 cells [2]; [6]
  Triglyceride (100 uM) Aver.: 76.16
HepG2 cells [3]; [9]
  Gluconeogenesis inhibition (100 uM) Aver.: 5.72
C2C12 cells
  Glucose absorption (100 uM) Aver.: 6.91%

## COc1ccc(CN=C(NCCc2cccs2)NC(=N)N)cc1.Cl [Example 38, N1-2-(thiophen-2-ylethyl)-N2-(4-methoxybenzyl) biguanide hydrochloride]
HepG2 cells [1]; [4]
  Cholesterol (100 uM) Aver.: 80.35
HepG2 cells [1]; [5]
  Cholesterol (500 uM) Aver.: 44.72
HepG2 cells [2]; [6]
  Triglyceride (100 uM) Aver.: 100.89
HepG2 cells [2]; [7]
  Triglyceride (500 uM) Aver.: 84.10
HepG2 cells [3]; [8]
  Gluconeogenesis inhibition (100 uM) Aver.: 120.13
C2C12 cells
  Glucose absorption (100 uM) Aver.: 195.22%

## CN=C(NCCc1cccs1)NC(=N)N.Cl [Example 5, N1-2-(thiophen-2-ylethyl)-N2-methyl biguanide hydrochloride]
HepG2 cells [1]; [10]
  Cholesterol (100 uM) Aver.: 49.29
HepG2 cells [1]; [5]
  Cholesterol (500 uM) Aver.: 41.36
HepG2 cells [2]; [11]
  Triglyceride (100 uM) Aver.: 65.03
HepG2 cells [2]; [7]
  Triglyceride (500 uM) Aver.: 41.59
HepG2 cells [3]; [12]
  Gluconeogenesis inhibition (100 uM) Aver.: 58.50
C2C12 cells; hydrochloride
  Glucose absorption (100 uM) Aver.: 350.4%

## Cl.N=C(N)NC(=Nc1ccccc1)NCCc1cccs1 [Example 20, N1-2-(thiophen-2-ylethyl)-N2-phenyl biguanide hydrochloride]
HepG2 cells [1]; [4]
  Cholesterol (100 uM) Aver.: 45.7
HepG2 cells [1]; [5]
  Cholesterol (500 uM) Aver.: 18.3
HepG2 cells [2]; [6]
  Triglyceride (100 uM) Aver.: 67.5
HepG2 cells [2]; [7]
  Triglyceride (500 uM) Aver.: 57.6
HepG2 cells [3]; [8]
  Gluconeogenesis inhibition (100 uM) Aver.: 87.36
C2C12 cells
  Glucose absorption (100 uM) Aver.: 125.4%

## COc1ccc(OC)c(N=C(NCCc2cccs2)NC(=N)N)c1.Cl [Example 31, N1-2-(thiophen-2-ylethyl)-N2-(2,5-dimethoxyphenyl) biguanide hydrochloride]
HepG2 cells [1]; [10]
  Cholesterol (100 uM) Aver.: 75.67
HepG2 cells [1]; [13]
  Cholesterol (500 uM) Aver.: 49.39
HepG2 cells [2]; [11]
  Triglyceride (100 uM) Aver.: 81.74
HepG2 cells [2]; [14]
  Triglyceride (500 uM) Aver.: 57.32
HepG2 cells [3]; [12]
  Gluconeogenesis inhibition (100 uM) Aver.: 96.29
C2C12 cells; hydrochloride
  Glucose absorption (100 uM) Aver.: 168.20%

## Cl.N=C(N)NC(=NCC1CC1)NCCc1cccs1 [Example 43, N1-2-(thiophen-2-ylethyl)-N2-cyclopropylmethyl biguanide hydrochloride]
HepG2 cells [1]; [4]
  Cholesterol (100 uM) Aver.: 88.47
HepG2 cells [1]; [5]
  Cholesterol (500 uM) Aver.: 78.80
HepG2 cells [2]; [6]
  Triglyceride (100 uM) Aver.: 90.52
HepG2 cells [2]; [7]
  Triglyceride (500 uM) Aver.: 79.92
HepG2 cells [3]; [8]
  Gluconeogenesis inhibition (100 uM) Aver.: 99.28
C2C12 cells
  Glucose absorption (100 uM) Aver.: 196.03%

## CCc1ccccc1N=C(NCCc1cccs1)NC(=N)N.Cl [Example 9, N1-2-(thiophen-2-ylethyl)-N2-2-ethylphenyl biguanide hydrochloride]
HepG2 cells [1]; [4]
  Cholesterol (100 uM) Aver.: 39.25
HepG2 cells [1]; [5]
  Cholesterol (500 uM) Aver.: 7.55
HepG2 cells [2]; [6]
  Triglyceride (100 uM) Aver.: 74.99
HepG2 cells [2]; [7]
  Triglyceride (500 uM) Aver.: 19.51
HepG2 cells [3]; [8]
  Gluconeogenesis inhibition (100 uM) Aver.: 74.23
C2C12 cells
  Glucose absorption (100 uM) Aver.: 252.6%

## CCCCCCc1ccc(N=C(NCCc2cccs2)NC(=N)N)cc1.Cl [Example 29, N1-2-(thiophen-2-ylethyl)-N2-(4-hexylphenyl) biguanide hydrochloride]
HepG2 cells [1]; [4]
  Cholesterol (100 uM) Aver.: 30.10
HepG2 cells [1]; [5]
  Cholesterol (500 uM) Aver.: 119.39
HepG2 cells [2]; [6]
  Triglyceride (100 uM) Aver.: 8.04
HepG2 cells [2]; [7]
  Triglyceride (500 uM) Aver.: 42.57
HepG2 cells [3]; [8]
  Gluconeogenesis inhibition (100 uM) Aver.: 1.26
C2C12 cells
  Glucose absorption (100 uM) Aver.: 3.96%

## COc1ccc(OC)c(N=C(NCCc2cccs2)NC(=N)N)c1.Cl [Example 16, N1-2-(thiophen-2-ylethyl)-N2-(2,5-dimethoxy)phenyl biguanide hydrochloride]
HepG2 cells [1]; [10]
  Cholesterol (100 uM) Aver.: 85.0
HepG2 cells [1]; [13]
  Cholesterol (500 uM) Aver.: 58.5
HepG2 cells [2]; [11]
  Triglyceride (100 uM) Aver.: 73.8
HepG2 cells [2]; [14]
  Triglyceride (500 uM) Aver.: 51.3
HepG2 cells [3]; [12]
  Gluconeogenesis inhibition (100 uM) Aver.: 68.89
C2C12 cells; hydrochloride
  Glucose absorption (100 uM) Aver.: 147.3%

## N1-2-(thiophen-2-ylethyl)-N2-cyclohexyl biguanide hydrochloride [Example 6]
HepG2 cells [1]
  Cholesterol (100 uM) Aver.: 30.58
  Cholesterol (500 uM) Aver.: 0.51
HepG2 cells [2]
  Triglyceride (100 uM) Aver.: 51.00
  Triglyceride (500 uM) Aver.: −1.71
HepG2 cells [3]
  Gluconeogenesis inhibition (100 uM) Aver.: 33.59
C2C12 cells
  Glucose absorption (100 uM) Aver.: 56.15%

## Cl.N=C(N)NC(=NC1CCCCCC1)NCCc1cccs1 [Example 22, N1-2-(thiophen-2-ylethyl)-N2-cycloheptyl biguanide hydrochloride]
HepG2 cells [1]; [4]
  Cholesterol (100 uM) Aver.: 69.8
HepG2 cells [1]; [5]
  Cholesterol (500 uM) Aver.: 44.4
HepG2 cells [2]; [6]
  Triglyceride (100 uM) Aver.: 77.8
HepG2 cells [2]; [7]
  Triglyceride (500 uM) Aver.: 78.9
HepG2 cells [3]; [8]
  Gluconeogenesis inhibition (100 uM) Aver.: 96.63
C2C12 cells
  Glucose absorption (100 uM) Aver.: 173.8%
